Experiments:
[1] = biological target: T1, human TLR7 (hTLR7) (Homo sapiens, UniProt Q9NYK1); assay: Human TLR7 agonist activity assay (HEK-Blue TLR7 SEAP reporter); type: cell-based; details: HEK-Blue TLR7 cells, 18 h incubation, Quanti-Blue, OD 620 nm, some values average of multiple measurements
T1 construct: host or cells: HEK-Blue TLR7 cells (engineered human embryonic kidney cells)
T1 sequence (Q9NYK1 27-1049): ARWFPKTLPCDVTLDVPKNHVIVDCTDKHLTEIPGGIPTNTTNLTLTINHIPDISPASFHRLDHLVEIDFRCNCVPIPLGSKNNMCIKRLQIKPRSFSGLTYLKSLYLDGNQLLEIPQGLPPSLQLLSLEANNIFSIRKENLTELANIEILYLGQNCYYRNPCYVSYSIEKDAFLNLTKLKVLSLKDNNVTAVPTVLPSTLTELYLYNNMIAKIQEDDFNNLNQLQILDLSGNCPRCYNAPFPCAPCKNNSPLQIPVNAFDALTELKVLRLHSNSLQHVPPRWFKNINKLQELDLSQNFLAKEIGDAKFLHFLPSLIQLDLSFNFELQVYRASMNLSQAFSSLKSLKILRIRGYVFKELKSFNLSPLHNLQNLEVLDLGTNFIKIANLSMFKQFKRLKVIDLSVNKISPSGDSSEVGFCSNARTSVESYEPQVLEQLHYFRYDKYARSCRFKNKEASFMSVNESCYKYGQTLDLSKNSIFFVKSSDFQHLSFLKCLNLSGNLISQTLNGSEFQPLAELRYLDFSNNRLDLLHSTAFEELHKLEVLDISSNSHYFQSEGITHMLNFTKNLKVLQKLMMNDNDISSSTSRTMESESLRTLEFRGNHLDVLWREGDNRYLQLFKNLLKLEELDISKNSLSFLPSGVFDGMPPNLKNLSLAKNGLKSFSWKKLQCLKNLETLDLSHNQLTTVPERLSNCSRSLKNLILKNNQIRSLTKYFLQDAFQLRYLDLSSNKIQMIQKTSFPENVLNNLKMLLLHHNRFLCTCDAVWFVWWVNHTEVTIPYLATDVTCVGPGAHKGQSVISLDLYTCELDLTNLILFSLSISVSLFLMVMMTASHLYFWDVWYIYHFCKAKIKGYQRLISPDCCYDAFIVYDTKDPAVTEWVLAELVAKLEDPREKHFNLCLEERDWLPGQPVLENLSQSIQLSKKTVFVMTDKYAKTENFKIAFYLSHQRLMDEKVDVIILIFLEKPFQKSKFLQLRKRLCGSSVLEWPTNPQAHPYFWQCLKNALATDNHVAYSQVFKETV
Protocol: (§1) This procedure describes a method for assaying human TLR7 (hTLR7) and human TLR8 (hTLR8) agonist activity of the compounds disclosed herein.
(§2) HEK-Blue™ TLR7 cells were added to each well of a 384-well tissue-culture plate (15,000 cells per well) and incubated 16-18 h at 37° C., 5% CO2. Compounds (100 nL) were dispensed into wells containing the HEK-Blue™ TLR cells and the treated cells were incubated at 37° C., 5% CO2. After 18 h, ten microliters 5 of freshly prepared Quanti-Blue™ reagent (Invivogen) was added to each well and incubated for 30 min (37° C., […]). SLAP levels were measured using an Envision plate reader (OD=620 nm). The half maximal effective concentration values (ECSO; compound concentration which induced a response halfway between the assay baseline and maximum) were calculated. Some of the reported activities were the average of multiple measurements.

[2] = biological target: T2, human TLR8 (hTLR8) (Homo sapiens, UniProt Q9NR97); assay: Human TLR8 agonist activity assay (measured in a similar manner); type: cell-based; details: HEK-Blue TLR cells, SEAP reporter, measured in a similar manner to TLR7; some values average of multiple measurements
T2 construct: expressed in transfected cells
T2 sequence (Q9NR97 27-1041): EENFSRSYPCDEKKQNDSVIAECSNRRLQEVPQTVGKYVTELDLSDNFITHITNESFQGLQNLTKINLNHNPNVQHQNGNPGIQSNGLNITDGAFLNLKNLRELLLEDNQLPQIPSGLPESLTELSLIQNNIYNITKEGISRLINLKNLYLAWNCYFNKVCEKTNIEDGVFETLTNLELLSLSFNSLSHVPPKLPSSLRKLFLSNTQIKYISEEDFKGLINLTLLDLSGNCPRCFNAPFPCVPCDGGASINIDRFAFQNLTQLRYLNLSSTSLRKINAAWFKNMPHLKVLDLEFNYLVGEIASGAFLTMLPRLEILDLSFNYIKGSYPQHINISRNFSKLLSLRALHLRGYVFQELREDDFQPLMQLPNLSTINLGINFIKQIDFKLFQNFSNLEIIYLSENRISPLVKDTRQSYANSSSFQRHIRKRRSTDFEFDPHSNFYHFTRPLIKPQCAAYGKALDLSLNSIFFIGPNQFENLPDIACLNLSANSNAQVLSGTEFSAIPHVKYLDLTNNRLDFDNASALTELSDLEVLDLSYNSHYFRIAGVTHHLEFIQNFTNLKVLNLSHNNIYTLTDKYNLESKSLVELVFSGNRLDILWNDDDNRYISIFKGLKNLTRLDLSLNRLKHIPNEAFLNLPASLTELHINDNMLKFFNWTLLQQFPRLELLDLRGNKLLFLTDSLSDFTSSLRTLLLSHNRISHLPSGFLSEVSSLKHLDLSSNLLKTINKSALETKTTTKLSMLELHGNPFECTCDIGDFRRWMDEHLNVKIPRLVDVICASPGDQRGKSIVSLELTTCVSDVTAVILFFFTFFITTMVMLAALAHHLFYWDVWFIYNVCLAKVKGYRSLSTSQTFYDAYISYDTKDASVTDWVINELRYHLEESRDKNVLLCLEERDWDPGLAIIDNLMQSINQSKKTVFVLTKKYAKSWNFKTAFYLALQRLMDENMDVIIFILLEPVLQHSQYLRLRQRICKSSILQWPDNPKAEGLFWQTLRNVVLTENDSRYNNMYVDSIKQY
Protocol: as §1
as §2, with “The half maximal effective concentration values (ECSO; compound concentration which induced a response halfway between the assay baseline and maximum) were calculated.” left out
TLR8 activity was measured in a similar manner.

Row | EC50 [1] [µM] | EC50 [2] [µM] | SMILES
1 | 0.731 | 0.486 | CCCCN(CCO)c1nc(N)nc2cn(Cc3ccc(CN[C@@H]4CCOC4)cc3OC)nc12 [Compound 53]
2 | 1.33 | 1.5 | CCCCN(CCO)c1nc(N)nc2cn(Cc3ccc(CN[C@@H]4COC[C@@H]4F)cc3OC)nc12 [Compound 54]
3 | 0.349 | 2.03 | CCCCN(CCO)c1nc(N)nc2cn(Cc3ccc(CN4CCCNCC4)cc3OC)nc12 [Compound 55]
4 | 1.7 | 2.31 | CCCCN(CCO)c1nc(N)nc2cn(Cc3ccc(CN[C@H]4CCN(C(C)C)C4)cc3OC)nc12 [Compound 56]
5 | 2 | 1.39 | CCCCCNCc1ccc(Cn2cc3nc(N)nc(N(CCO)CCCC)c3n2)c2ncccc12 [Compound 57]
6 | 0.757 | 0.488 | CCCCN(CCO)c1nc(N)nc2cn(Cc3ccc(CNC4CCOCC4)c4cccnc34)nc12 [Compound 58]
7 | 1.55 | 1.14 | CCCCN(CCO)c1nc(N)nc2cn(Cc3ccc(CNCCCCO)c4cccnc34)nc12 [Compound 59]
8 | 0.326 | 0.469 | CCCCN(CCO)c1nc(N)nc2cn(Cc3ccc(CN4CCN(C5CCC5)CC4)c4cccnc34)nc12 [Compound 60]
9 | 1.5 | 0.952 | CCCCN(CCO)c1nc(N)nc2cn(Cc3ccc(CNC4CCCC4)c4cccnc34)nc12 [Compound 61]
10 | 1.31 | 0.675 | CCCCN(CCO)c1nc(N)nc2cn(Cc3ccc(CN4CC(CCO)C4)c4cccnc34)nc12 [Compound 62]
11 | 0.915 | 0.736 | CCCCN(CCO)c1nc(N)nc2cn(Cc3ccc(CNCCCC4CC4)c4cccnc34)nc12 [Compound 63]
12 | 2.11 | 1.55 | CCCCN(CCO)c1nc(N)nc2cn(Cc3ccc(CNC4CC(F)(F)C4)c4cccnc34)nc12 [Compound 64]
13 | 2.09 | 2.38 | CCCCN(CCO)c1nc(N)nc2cn(Cc3ccc(CNC4CCN(C)CC4)c4cccnc34)nc12 [Compound 65]
14 | 1.59 | 2.13 | CCCCN(CCO)c1nc(N)nc2cn(Cc3ccc(CNC4CCN(CCOC)CC4)c4cccnc34)nc12 [Compound 66]
15 | 0.349 | 1.32 | CCCCN(c1nc(N)nc2cn(Cc3ccc(CN[C@@H]4CCOC4)cc3OC)nc12)C(C)CO (stereo partly drawn) [Compound 68]
16 | 1.05 | 1.06 | CCCCCN(CCO)c1nc(N)nc2cn(Cc3ccc(CN[C@@H]4CCOC4)cc3OC)nc12 [Compound 70]
17 | 0.621 | 1.88 | CCCCN(CCOC)c1nc(N)nc2cn(Cc3ccc(CN[C@@H]4CCOC4)cc3OC)nc12 [Compound 71]
18 | 0.738 | 0.835 | CCCCN(CCO)c1nc(N)nc2cn(Cc3c(F)cc(CNCCO)cc3OC)nc12 [Compound 72]

Row | EC50 [1] [µM] | EC50 [2] [µM] | SMILES
19 | 0.32 | 0.593 | CCCCN(CCO)c1nc(N)nc2cn(Cc3c(F)cc(CNCCOC)cc3OC)nc12 [Compound 73]
20 | 0.741 | 1.28 | CCCCN(CCO)c1nc(N)nc2cn(Cc3c(F)cc(CNC4CCOCC4)cc3OC)nc12 [Compound 74]
21 | 0.37 | 0.67 | CCCCN(CCO)c1nc(N)nc2cn(Cc3c(F)cc(CN[C@@H]4CCOC4)cc3OC)nc12 [Compound 75]
22 | 1.41 | 1.62 | CCCCN(CCO)c1nc(N)nc2cn(Cc3c(F)cc(CNCC(C)(C)C)cc3OC)nc12 [Compound 80]
23 | 1 | 1.43 | CCCCN(CCO)c1nc(N)nc2cn(Cc3c(F)cc(CNCC(C)(C)O)cc3OC)nc12 [Compound 81]
24 | 0.511 | 2.26 | CCCCN(CCO)c1nc(N)nc2cn(Cc3c(F)cc(CN4CC5(COC5)C4)cc3OC)nc12 [Compound 83]
25 | 0.199 | 0.497 | CCCCN(CCO)c1nc(N)nc2cn(Cc3c(F)cc(CN4CC(OC)C4)cc3OC)nc12 [Compound 84]
26 | 0.148 | 1.97 | CCCCN(CCO)c1nc(N)nc2cn(Cc3ccc(CN[C@@H]4CCOC4)cc3OC)nc12 [Compound 85]
27 | 0.229 | 0.311 | CCCCN(c1nc(N)nc2cn(Cc3ccc(CN[C@@H]4CCOC4)cc3OC)nc12)C(C)CO (stereo partly drawn) [Compound 86]
28 | 0.805 | 0.535 | CCCCN(CCO)c1nc(N)nc2cn(Cc3ccc(CNC4(C)CCOCC4)cc3OC)nc12 [Compound 88, 2-((5-Amino-2-(2-methoxy-4-(((4-methyltetrahydro-2H-pyran-4-yl)amino)methyl)benzyl)-2H-pyrazolo[4,3-d]pyrimidin-7-yl)(butyl)amino)ethan-1-ol]
29 | 1.55 | 0.961 | CCCCN(CCO)c1nc(N)nc2cn(Cc3ccc(CNC4(C)CC4)cc3OC)nc12 [Compound 89]
30 | 2.15 | 2.41 | CCCCN(CCO)c1nc(N)nc2cn(Cc3cccc4c3OCCN4C(=O)CN(C)C)nc12 [Compound 90]
31 | 1.22 | 2.08 | CCCCN(CCO)c1nc(N)nc2cn(Cc3c(F)cc(CNC4(CO)CC4)cc3OC)nc12 [Compound 91]
32 | 1.33 | 2.11 | CCCCN(CCO)c1nc(N)nc2cn(Cc3c(F)cc(CNCC4(CO)CC4)cc3OC)nc12 [Compound 92]
33 | 2.58 | 1.91 | CCCCN(CCO)c1nc(N)nc2cn(Cc3c(F)cc(CN[C@H]4CC[C@H](O)CC4)cc3OC)nc12 [Compound 93]
34 | 1.5 | 2.66 | CCCCN(CCO)c1nc(N)nc2cn(Cc3c(F)cc(CN[C@H]4C[C@H](O)C4)cc3OC)nc12 [Compound 94]
35 | 1.24 | 2.5 | CCCCN(CCO)c1nc(N)nc2cn(Cc3c(F)cc(CN[C@@H]4COC[C@@H]4O)cc3OC)nc12 [Compound 95]
36 | 0.54 | 1.99 | CCCCN(CCO)c1nc(N)nc2cn(Cc3c(F)cc(N4CCC(N[C@@H]5CCOC5)CC4)cc3F)nc12 [Compound 96]
